The nature of the series: Particle size distribution of micronized RPL554 by laser diffraction (Malvern Spraytec). Type of series: physicochemical. An excerpt: The technique used to measure the Dv50 value is typically laser diffraction. For instance, the RPL554 particles typically have a particle size distribution with a Dv50 value of from about 0.2 μm to about 5 μm as measured by laser diffraction. The particle size distribution analysis can be performed by laser diffraction using the Malvern Spraytec in conjunction with a wet dispersion cell. Typically, the instrument parameters for the Malvern Spraytec are as follows: • particle—standard opaque particle; • refractive index Particle—1.50; • refractive index (imaginary)—0.50; • density of particle—1.00; • refractive index of dispersant—1.33; • controller unit—1000 RPM; • measurement type—timed; • initial sampling time—30 s; • obscuration—20%-30%; • dispersant—1% Polysorbate 20 in deionised water.
The particle size distribution of a sample of micronized RPL554 suitable for use in nebulized formulations was evaluated using laser diffraction. The particle size distribution analysis was performed by laser diffraction using the Malvern Spraytec in conjunction with a wet dispersion cell.

Structures are written as SMILES.

`COc1cc2c(cc1OC)-c1c/c(=N\c3c(C)cc(C)cc3C)n(CCNC(N)=O)c(=O)n1CC2` [RPL554, 9,10-Dimethoxy-2-(2,4,6-trimethylphenylimino)-3-(N-carbamoyl-2-aminoethyl)-3,4,6,7-tetrahydro-2H-pyrimido[6,1-a]isoquinolin-4-one] registered a Dv10 of 0.69 μm, a Dv50 of 1.35 μm and a Dv90 of 2.5 μm.

These data come from patent publication US9956171B2, “Liquid inhalation formulation comprising RPL554” (VERONA PHARMA PLC, priority 2014, dated 2018).
